Assay results published in PubChem BioAssay AID806 (SRMLSC, 2007).
The source made the active and inactive calls. The rule behind the calls is not given here.

System: virus-infected cells, CPE inhibition, dose response
Experiment: PubChem AID 806
Conditions: for EC90: measured here: EC90 CPE inhibition; for CC50: measured here: cytotoxicity, cell viability IC50

For Cc1ccc(NC(=O)C2CC(=O)OC23CCOC(C)(C)C3)cc1 (stereo not drawn), the EC50 was > 60 µM (inactive), the EC90 was over 60 µM and the CC50 was over 60 µM.

For CC(c1ccco1)N(C(=O)COc1ccccc1[N+](=O)[O-])c1ccccn1 (stereo not drawn), the EC50 was > 60 µM (inactive), the EC90 was over 60 µM and the CC50 was over 60 µM.

In the case of COCCNC(=O)C(c1ccco1)N(C(=O)Cn1nnc2ccccc21)c1ccccc1C (stereo not drawn), the EC50 is reported as > 60 µM (inactive), the EC90 is reported as over 60 µM and the CC50 is reported as over 60 µM.

For O=C(c1cc(-c2ccc(Cl)cc2)n(-c2ccc(Cl)c(Cl)c2)n1)N1CCOCC1, the EC50 was > 60 µM (inactive), the EC90 was over 60 µM and the CC50 was 3.62 µM.

CCN(CC)C(=O)CN1CCN(c2ncccn2)CC1 was tested, and the EC50 was > 60 µM (inactive), the EC90 was over 60 µM and the CC50 was over 60 µM.

For CCN(c1ccccc1)c1ncnc2c1cnn2-c1ccccc1, the EC50 was > 60 µM (inactive), the EC90 was over 60 µM and the CC50 was over 60 µM.

For CC(=O)Nc1cccc(NC(=O)c2cc3ccccc3o2)c1, the EC50 was > 60 µM (inactive), the EC90 was over 60 µM and the CC50 was over 60 µM.

With COc1ccc(NC(=O)C2CCCCN2S(=O)(=O)c2ccc(F)cc2)c(OC)c1 (stereo not drawn) the EC50 was > 60 µM (inactive), the EC90 was over 60 µM and the CC50 was over 60 µM.

In the case of CCc1c(C)nc2[nH]nc(-c3ccccc3)n2c1=O, the EC50 is reported as > 60 µM (inactive), the EC90 is reported as over 60 µM and the CC50 is reported as over 60 µM.

With O=C(O)CCS(=O)(=O)c1nc(-c2cccs2)cc(C(F)(F)F)n1 the EC50 was > 60 µM (inactive), the EC90 was over 60 µM and the CC50 was over 60 µM.

For O=C(C1CCCCN1S(=O)(=O)c1ccccc1)N1CCCCC1 (stereo not drawn), the EC50 was > 60 µM (inactive), the EC90 was over 60 µM and the CC50 was over 60 µM.

For C#CCSc1nnc(-c2ccc(OC)cc2)o1, the EC50 was > 60 µM (inactive), the EC90 was over 60 µM and the CC50 was over 60 µM.

In the case of CN(C)CCSc1nnc(-c2ccccc2)o1, the EC50 is reported as > 60 µM (inactive), the EC90 is reported as over 60 µM and the CC50 is reported as over 60 µM.

Compound COc1ccc(NS(=O)(=O)c2ccc(OC)c(N(C)S(=O)(=O)c3ccc(Cl)cc3)c2)cc1 has an EC90 of over 60 µM and a CC50 of 22.9 µM.

O=C(Nc1cccc2ncccc12)c1cc2ccccc2o1 was tested, and the EC50 was > 60 µM (inactive), the EC90 was over 60 µM and the CC50 was over 60 µM.

For O=C(NCc1ccco1)C1CCCCN1S(=O)(=O)c1ccc(F)cc1 (stereo not drawn), the EC50 was > 60 µM (inactive), the EC90 was over 60 µM and the CC50 was over 60 µM.

In the case of CCCN(CCC)C(=O)CCS(=O)(=O)c1cccc2nsnc12, the EC50 is reported as > 60 µM (inactive), the EC90 is reported as over 60 µM and the CC50 is reported as over 60 µM.

For Cc1cccc(NC(=O)C2CC(=O)OC23CCCC3)c1 (stereo not drawn), the EC50 was > 60 µM (inactive), the EC90 was over 60 µM and the CC50 was over 60 µM.

For Cc1cc(C)n(S(=O)(=O)/C=C/c2ccccc2)n1, the EC50 was 56.5 µM (inactive), the EC90 was over 60 µM and the CC50 was over 60 µM.

In the case of CN1C(=O)Cn2c1nc1ccccc12, the EC50 is reported as > 60 µM (inactive), the EC90 is reported as over 60 µM and the CC50 is reported as over 60 µM.

In the case of COCCNC(=O)C(c1ccccc1)N(CCOC)C(=O)Cn1nnc2ccccc21 (stereo not drawn), the EC50 is reported as > 60 µM (inactive), the EC90 is reported as over 60 µM and the CC50 is reported as over 60 µM.

Cc1ccc(-n2nc(C(=O)N3CCOCC3)cc2-c2ccc(Cl)cc2)cc1 was tested, and the EC50 was > 60 µM (inactive), the EC90 was over 60 µM and the CC50 was 7.33 µM.

CCSc1nnc(-c2ccncc2)o1 was tested, and the EC50 was > 60 µM (inactive), the EC90 was over 60 µM and the CC50 was over 60 µM.

CCCCN(C(=O)Cn1nnc2ccccc21)C(C(=O)NCc1ccco1)c1ccncc1 (stereo not drawn) was tested, and the EC50 was > 60 µM (inactive), the EC90 was over 60 µM and the CC50 was over 60 µM.

In the case of COc1cccc(C2=NOC(C(=O)Nc3cc(C)nn3-c3ccccc3)C2)c1OC (stereo not drawn), the EC50 is reported as > 60 µM (inactive), the EC90 is reported as over 60 µM and the CC50 is reported as over 60 µM.

For O=C(Cc1ccccc1)Nc1ccc(-c2nnc(-c3ccco3)o2)cc1, the EC50 was > 60 µM (inactive), the EC90 was over 60 µM and the CC50 was over 60 µM.

With COc1cc(OC)c(C2=NOC(C(=O)Nc3cc(C)nn3-c3ccccc3)C2)cc1Cl (stereo not drawn) the EC50 was > 60 µM (inactive), the EC90 was over 60 µM and the CC50 was over 60 µM.

N#CCC(=O)N1CCn2c1nc1ccccc12 was tested, and the EC50 was > 60 µM (inactive), the EC90 was over 60 µM and the CC50 was over 60 µM.

With O=c1[nH]c2cccnc2n1Cc1ccccc1 the EC50 was > 60 µM (inactive), the EC90 was over 60 µM and the CC50 was over 60 µM.

For O=C(c1cc(-c2ccc(Cl)cc2)n(-c2ccc(Cl)cc2Cl)n1)N1CCOCC1, the EC50 was > 60 µM (inactive), the EC90 was over 60 µM and the CC50 was over 60 µM.

With COCCNC(=O)C(c1ccccc1)N(C(=O)Cn1nnc2ccccc21)c1cccnc1 (stereo not drawn) the EC50 was > 60 µM (inactive), the EC90 was over 60 µM and the CC50 was over 60 µM.

In the case of O=C(c1cnn2c(C(F)F)cc(C3CC3)nc12)N1CCOCC1, the EC50 is reported as > 60 µM (inactive), the EC90 is reported as over 60 µM and the CC50 is reported as over 60 µM.

In the case of CCOC(=O)/C=C1\SCC(=O)N1CC(=O)NC(C)C, the EC50 is reported as > 60 µM (inactive), the EC90 is reported as over 60 µM and the CC50 is reported as over 60 µM.

O=C(Nc1ccccc1)c1cc2ccccc2o1 was tested, and the EC50 was > 60 µM (inactive), the EC90 was over 60 µM and the CC50 was over 60 µM.

In the case of CC(c1ccco1)N(C(=O)COc1ccc(Cl)cc1)c1ccccn1 (stereo not drawn), the EC50 is reported as > 60 µM (inactive), the EC90 is reported as over 60 µM and the CC50 is reported as over 60 µM.

For COc1ccc(Nc2ncnc3c2cnn3-c2ccccc2)cc1OC, the EC50 was > 60 µM (inactive), the EC90 was over 60 µM and the CC50 was over 60 µM.

For COc1ccc(C(=O)C(CN2CCOCC2)c2ccccc2)cc1F (stereo not drawn), the EC50 was > 60 µM (inactive), the EC90 was over 60 µM and the CC50 was over 60 µM.

In the case of O=C1c2ccccc2-c2onc3ccc(Oc4ccccc4)c1c23, the EC50 is reported as > 60 µM (inactive), the EC90 is reported as over 60 µM and the CC50 is reported as 17.7 µM.

COC(=O)CSc1nnc(-c2ccncc2)o1 was tested, and the EC50 was > 60 µM (inactive), the EC90 was over 60 µM and the CC50 was over 60 µM.

In the case of CC1CCCN(C(=O)Nc2cccc(NC(=O)N3CCCC(C)C3C)c2)C1C (stereo not drawn), the EC50 is reported as > 60 µM (inactive), the EC90 is reported as over 60 µM and the CC50 is reported as over 60 µM.

In the case of COc1ccccc1Cn1c(=O)[nH]c2cccnc21, the EC50 is reported as > 60 µM (inactive), the EC90 is reported as over 60 µM and the CC50 is reported as over 60 µM.

With CC1Cc2ccccc2N1C(=O)CSc1nnc2sc3ccccc3n12 (stereo not drawn) the EC50 was > 60 µM (inactive), the EC90 was over 60 µM and the CC50 was 10.1 µM.

In the case of O=C(CCS(=O)(=O)c1cccc2nsnc12)NCc1ccccc1, the EC50 is reported as > 60 µM (inactive), the EC90 is reported as over 60 µM and the CC50 is reported as over 60 µM.

With Cc1cccc(C)c1NC(=O)CCS(=O)(=O)c1cccc2nsnc12 the EC50 was > 60 µM (inactive), the EC90 was over 60 µM and the CC50 was over 60 µM.

O=C(Nc1cccnc1)c1cc2c(ccc3ccccc32)o1 was tested, and the EC50 was > 60 µM (inactive), the EC90 was over 60 µM and the CC50 was over 60 µM.

With Cc1cccc(-n2ncc3c(N4CCc5ccccc54)ncnc32)c1 the EC50 was > 60 µM (inactive), the EC90 was over 60 µM and the CC50 was over 60 µM.

With CC(=O)c1cccc(NC(=O)CCS(=O)(=O)c2cccc3nsnc23)c1 the EC50 was > 60 µM (inactive), the EC90 was over 60 µM and the CC50 was over 60 µM.

For O=C(CSc1ccc2nnc(-c3cccnc3)n2n1)NCc1ccco1, the EC50 was > 60 µM (inactive), the EC90 was over 60 µM and the CC50 was over 60 µM.
